Data: US10556914B2, “Substituted isoxazolopyridazinones and isothiazolopyridazinones and methods of use” (AbbVie Inc., priority 2015, dated 2020)
pEC50: −log10 of the molar value.

molecular target: GABA-B receptor (Rattus norvegicus (Rat), UniProt O88871+Q9Z0U4); test: [35S]GTPgS Binding Assay (rat brain cortex membranes, native receptor); format: biochemical; conditions: rat cortical membranes; in the presence of 1 μM GABA (EC25); basal binding 0%, maximal binding (1 mM GABA) 100%
Method: Preparation of Rat Brain Membranes for Native Receptor Assays
Membranes from rat brain cortex were prepared as described in detail by Olpe et al. and stored at concentrations of 1.66 mg/mL protein at −80° C. until required. (Olpe, H.-R, et al. Eur J Pharmacol 1990; 187: 27-38).
[^35S]GTPgS Binding Assay
The samples were incubated at room temperature for 60 minutes on a shaker. The incubation was stopped by rapid vacuum filtration over glass-fiber filter plates (UniFilter-96 well, GF/B membrane plates, PerkinElmer) using a 96-well plate harvester (TOMTEK© Harvester). The UniFilter plate was washed five times with ice-cold wash buffer (50 mM Tris-HCl buffer, pH 7.7, 10 mM MgCl2, and 100 mM NaCl. After filtration the plate was dried for 90 minutes at 55° C. The plates were closed on the bottom with black sealing membranes, and liquid scintillation cocktail (35 μL, Betaplate Scint, PerkinElmer) was added to each well. After sealing the top of the plate, an additional incubation step of 90 minutes at room temperature followed before measuring the plate. The amount of membrane-bound [^35S]GTPgS was measured using a 96-well plate reader (Microbeta®, PerkinElmer). Nonspecific binding was measured in the presence of unlabeled 10 μM of GTPgS (Millipore) and without GABA. Basal binding was measured in the absence of 1 μM GABA, and maximal binding was measured in the presence of GABA using 1 mM GABA concentrations.
Data analysis. The concentration-response curves of compounds of the present disclosure in the presence of EC25 of GABA-B receptor agonist were generated using the GraphPad Prism® program (GraphPad Software, San Diego, Calif.). Data was normalized using basal binding as 0% and maximal binding as 100%. The curves were fitted by nonlinear regression allowing determination of EC50 values from sigmoidal dose-response curves. Each curve was performed using triplicate sample per date point and 10 concentrations.

Sequence of GABA-B receptor (Q9Z0U4 17-960): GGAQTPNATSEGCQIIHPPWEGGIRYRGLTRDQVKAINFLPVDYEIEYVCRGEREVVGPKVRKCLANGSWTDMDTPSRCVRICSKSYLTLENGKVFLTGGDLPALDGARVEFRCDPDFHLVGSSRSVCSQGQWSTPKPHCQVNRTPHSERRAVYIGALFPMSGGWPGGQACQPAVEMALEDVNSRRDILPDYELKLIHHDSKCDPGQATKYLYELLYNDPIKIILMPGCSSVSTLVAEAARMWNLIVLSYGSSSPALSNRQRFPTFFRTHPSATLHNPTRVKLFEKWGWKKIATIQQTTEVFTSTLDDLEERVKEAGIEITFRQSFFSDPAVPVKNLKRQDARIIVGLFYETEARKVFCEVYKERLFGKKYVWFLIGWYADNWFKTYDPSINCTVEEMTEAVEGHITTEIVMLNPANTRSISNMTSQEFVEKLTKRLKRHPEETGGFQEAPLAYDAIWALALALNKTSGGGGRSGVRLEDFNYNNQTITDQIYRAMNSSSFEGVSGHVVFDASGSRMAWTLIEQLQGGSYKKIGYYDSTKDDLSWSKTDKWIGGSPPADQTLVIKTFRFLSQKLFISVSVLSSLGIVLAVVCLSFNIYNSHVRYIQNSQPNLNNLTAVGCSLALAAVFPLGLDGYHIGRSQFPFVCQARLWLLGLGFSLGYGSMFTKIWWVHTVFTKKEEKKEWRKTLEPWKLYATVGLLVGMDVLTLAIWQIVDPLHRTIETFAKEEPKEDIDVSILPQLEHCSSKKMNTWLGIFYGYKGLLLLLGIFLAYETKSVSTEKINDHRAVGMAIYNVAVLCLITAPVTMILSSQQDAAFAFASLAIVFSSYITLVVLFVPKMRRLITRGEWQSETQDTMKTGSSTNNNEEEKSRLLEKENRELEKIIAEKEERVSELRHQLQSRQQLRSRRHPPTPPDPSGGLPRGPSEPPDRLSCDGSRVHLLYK
Sequence of GABA-B receptor (O88871 41-940): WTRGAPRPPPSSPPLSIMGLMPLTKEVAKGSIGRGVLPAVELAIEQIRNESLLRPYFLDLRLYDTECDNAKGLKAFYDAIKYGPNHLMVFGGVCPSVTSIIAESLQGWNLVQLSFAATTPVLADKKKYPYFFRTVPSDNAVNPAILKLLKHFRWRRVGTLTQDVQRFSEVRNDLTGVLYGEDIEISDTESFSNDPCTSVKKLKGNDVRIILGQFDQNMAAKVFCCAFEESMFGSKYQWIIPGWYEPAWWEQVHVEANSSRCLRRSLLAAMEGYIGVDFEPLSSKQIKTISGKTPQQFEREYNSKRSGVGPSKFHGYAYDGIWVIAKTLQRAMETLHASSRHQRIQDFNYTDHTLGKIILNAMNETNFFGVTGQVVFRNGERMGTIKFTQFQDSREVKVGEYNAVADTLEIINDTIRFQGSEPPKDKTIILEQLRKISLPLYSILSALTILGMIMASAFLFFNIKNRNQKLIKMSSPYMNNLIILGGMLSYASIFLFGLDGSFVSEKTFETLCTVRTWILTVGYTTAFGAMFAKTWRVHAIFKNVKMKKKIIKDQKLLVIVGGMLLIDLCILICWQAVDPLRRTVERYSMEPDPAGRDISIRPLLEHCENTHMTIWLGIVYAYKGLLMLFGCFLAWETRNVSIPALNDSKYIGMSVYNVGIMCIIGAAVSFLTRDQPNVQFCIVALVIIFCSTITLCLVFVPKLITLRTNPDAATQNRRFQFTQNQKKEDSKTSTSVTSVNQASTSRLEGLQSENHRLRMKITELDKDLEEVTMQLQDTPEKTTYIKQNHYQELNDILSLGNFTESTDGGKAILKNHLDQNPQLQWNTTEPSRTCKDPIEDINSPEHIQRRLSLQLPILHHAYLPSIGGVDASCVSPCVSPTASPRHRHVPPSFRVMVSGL

Row | pEC50 | SMILES
1 | 5.46 | Cc1noc2c(-c3ccc(F)cc3)nn(Cc3ccc(Cl)c(C(F)(F)F)c3)c(=O)c12 [Example 28, 5-[4-chloro-3-(trifluoromethyl)benzyl]-7-(4-fluorophenyl)-3-methyl[1,2]oxazolo[4,5-d]pyridazin-4(5H)-one]
2 | 6.46 | Cc1noc2c(-c3ccc4cc[nH]c4c3)nn(C(C)c3ccc(Cl)cc3)c(=O)c12 (centres unmarked) [Example 12, 5-[1-(4-chlorophenyl)ethyl]-7-(1H-indol-6-yl)-3-methyl[1,2]oxazolo[4,5-d]pyridazin-4(5H)-one]
3 | 5.81 | COc1ccc(-c2nn(Cc3ccc(C(F)(F)F)cc3)c(=O)c3c(C)noc23)c(OC)c1 [Example 127, 7-(2,4-dimethoxyphenyl)-3-methyl-5-[4-(trifluoromethyl)benzyl][1,2]oxazolo[4,5-d]pyridazin-4(5H)-one]
4 | 6.30 | Cc1noc2c(-c3cccc(N)c3)nn(C(C)c3ccc(Cl)cc3)c(=O)c12 (centres unmarked) [Example 126, 7-(3-aminophenyl)-5-[1-(4-chlorophenyl)ethyl]-3-methyl[1,2]oxazolo[4,5-d]pyridazin-4(5H)-one]
5 | 6.03 | CC(=O)Nc1cccc(-c2nn(Cc3ccc(Cl)cc3)c(=O)c3c(C)noc23)c1 [Example 70, N-{3-[5-(4-chlorobenzyl)-3-methyl-4-oxo-4,5-dihydro[1,2]oxazolo[4,5-d]pyridazin-7-yl]phenyl}acetamide]
6 | 6.29 | COc1ccc(C(F)(F)F)cc1-c1nn(C(C)c2ccc(Cl)cc2)c(=O)c2c(C)noc12 (centres unmarked) [Example 79, 5-[1-(4-chlorophenyl)ethyl]-7-[2-methoxy-5-(trifluoromethyl)phenyl]-3-methyl[1,2]oxazolo[4,5-d]pyridazin-4(5H)-one]
7 | 5.17 | Cc1noc2c(-c3cccnc3)nn(Cc3ccc(Cl)cc3)c(=O)c12 [Example 120, 5-(4-chlorobenzyl)-3-methyl-7-(pyridin-3-yl)[1,2]oxazolo[4,5-d]pyridazin-4(5H)-one]
8 | 5.43 | COc1ccccc1-c1nn(Cc2ccc(OC)c(C(F)(F)F)c2)c(=O)c2c(C)noc12 [Example 101, 7-(2-methoxyphenyl)-5-[4-methoxy-3-(trifluoromethyl)benzyl]-3-methyl[1,2]oxazolo[4,5-d]pyridazin-4(5H)-one]
9 | 6.64 | COc1ccc(OC)c(-c2nn(C(C)c3ccc(Cl)cc3)c(=O)c3c(C)noc23)c1 (centres unmarked) [Example 21, 5-[1-(4-chlorophenyl)ethyl]-7-(2,5-dimethoxyphenyl)-3-methyl[1,2]oxazolo[4,5-d]pyridazin-4(5H)-one]
10 | 6.55 | CC(=O)Nc1ccc(OC(F)(F)F)c(-c2nn(C(C)c3ccc(Cl)cc3)c(=O)c3c(C)noc23)c1 (centres unmarked) [Example 49, N-[3-{5-[1-(4-chlorophenyl)ethyl]-3-methyl-4-oxo-4,5-dihydro[1,2]oxazolo[4,5-d]pyridazin-7-yl}-4-(trifluoromethoxy)phenyl]acetamide]
11 | < 5.00 | COc1ccc(OC)c(-c2nn([C@H](C)c3ccc(Cl)cc3)c(=O)c3c(C4CC4)noc23)c1 [Example 128, 5-[(1R)-1-(4-chlorophenyl)ethyl]-3-cyclopropyl-7-(2,5-dimethoxyphenyl)-[1,2]oxazolo[4,5-d]pyridazin-4(5H)-one]
12 | < 5.00 | COc1ccc(NC(C)=O)cc1-c1nn([C@H](C)c2ccc(Cl)cc2)c(=O)c2c(C3CC3)noc12 [Example 3, N-(3-{5-[(1R)-1-(4-chlorophenyl)ethyl]-3-cyclopropyl-4-oxo-4,5-dihydro[1,2]oxazolo[4,5-d]pyridazin-7-yl}-4-methoxyphenyl)acetamide]
13 | 5.68 | CC(=O)Nc1cc(-c2nn(Cc3ccc(Cl)cc3)c(=O)c3c(C)noc23)ccc1F [Example 8]
14 | 5.48 | CC(=O)Nc1cccc(-c2nn(Cc3ccc(C(F)(F)F)cc3)c(=O)c3c(C)noc23)c1 [Example 57, N-(3-{3-methyl-4-oxo-5-[4-(trifluoromethyl)benzyl]-4,5-dihydro[1,2]oxazolo[4,5-d]pyridazin-7-yl}phenyl)acetamide]
15 | 6.24 | COc1ccc(OC)c(-c2nn(Cc3ccc(Cl)cc3)c(=O)c3c(C4CC4)noc23)c1 [Example 47, 5-(4-chlorobenzyl)-3-cyclopropyl-7-(2,5-dimethoxyphenyl)[1,2]oxazolo[4,5-d]pyridazin-4(5H)-one]
16 | < 5.00 | CC(=O)Nc1cc(-c2nn(Cc3ccc(F)c(C(F)(F)F)c3)c(=O)c3c(C)noc23)ccc1F [Example 61, N-(2-fluoro-5-{5-[4-fluoro-3-(trifluoromethyl)benzyl]-3-methyl-4-oxo-4,5-dihydro[1,2]oxazolo[4,5-d]pyridazin-7-yl}phenyl)acetamide]

Row | pEC50 | SMILES
17 | 7.25 | CNC(=O)c1ccc(OC)c(-c2nn(C(C)c3ccc(Cl)cc3)c(=O)c3c(C)noc23)c1 (centres unmarked) [Example 119, 3-{5-[1-(4-chlorophenyl)ethyl]-3-methyl-4-oxo-4,5-dihydro[1,2]oxazolo[4,5-d]pyridazin-7-yl}-4-methoxy-N-methylbenzamide]
18 | 7.77 | COc1ccc(C(N)=O)cc1-c1nn(C(C)c2ccc(Cl)cc2)c(=O)c2c(C)noc12 (centres unmarked) [Example 59]
19 | 6.19 | COc1ccc(C(=O)N(C)C)cc1-c1nn(C(C)c2ccc(Cl)cc2)c(=O)c2c(C)noc12 (centres unmarked) [Example 38]
20 | 5.73 | Cc1noc2c(-c3cc(F)ccc3N)nn(C(C)c3ccc(Cl)cc3)c(=O)c12 (centres unmarked) [Example 97, 7-(2-amino-5-fluorophenyl)-5-[1-(4-chlorophenyl)ethyl]-3-methyl[1,2]oxazolo[4,5-d]pyridazin-4(5H)-one]
21 | 5.42 | Cc1noc2c(-c3cncnc3)nn(C(C)c3ccc(Cl)cc3)c(=O)c12 (centres unmarked) [Example 113, 5-[1-(4-chlorophenyl)ethyl]-3-methyl-7-(pyrimidin-5-yl)[1,2]oxazolo[4,5-d]pyridazin-4(5H)-one]
22 | 6.05 | CCc1noc2c(-c3cc(OC)ccc3OC)nn(Cc3ccc(Cl)cc3)c(=O)c12 [Example 36, 5-(4-chlorobenzyl)-7-(2,5-dimethoxyphenyl)-3-ethyl[1,2]oxazolo[4,5-d]pyridazin-4(5H)-one]
23 | 6.19 | COc1ccc(NC(C)=O)cc1-c1nn(Cc2ccc(C(F)(F)F)cc2)c(=O)c2c(C)noc12 [Example 64, N-(4-methoxy-3-{3-methyl-4-oxo-5-[4-(trifluoromethyl)benzyl]-4,5-dihydro[1,2]oxazolo[4,5-d]pyridazin-7-yl}phenyl)acetamide]
24 | < 5.00 | CCCc1noc2c(-c3cc(OC)ccc3OC)nn(Cc3ccc(Cl)cc3)c(=O)c12 [Example 52, 5-(4-chlorobenzyl)-7-(2,5-dimethoxyphenyl)-3-propyl[1,2]oxazolo[4,5-d]pyridazin-4(5H)-one]
25 | 5.49 | COCc1noc2c(-c3cccc(NC(C)=O)c3)nn(Cc3ccc(Cl)cc3)c(=O)c12 [Example 27, N-{3-[5-(4-chlorobenzyl)-3-(methoxymethyl)-4-oxo-4,5-dihydro[1,2]oxazolo[4,5-d]pyridazin-7-yl]phenyl}acetamide]
26 | 6.36 | COc1ccc(NC(C)=O)cc1-c1nn(C(C)c2ccc(C(F)(F)F)cc2)c(=O)c2c(C)noc12 (centres unmarked) [Example 103, N-[4-methoxy-3-(3-methyl-4-oxo-5-{(1)-1-[4-(trifluoromethyl)phenyl]ethyl}-4,5-dihydro[1,2]oxazolo[4,5-d]pyridazin-7-yl)phenyl]acetamide]
27 | 5.32 | CC(=O)Nc1cccc(-c2nn([C@H](C)c3ccc(Cl)cc3)c(=O)c3c(C)noc23)c1 [Example 34, N-(3-{5-[(1R)-1-(4-chlorophenyl)ethyl]-3-methyl-4-oxo-4,5-dihydro[1,2]oxazolo[4,5-d]pyridazin-7-yl}phenyl)acetamide]
28 | 5.44 | CC(=O)Nc1c(F)ccc(-c2nn([C@H](C)c3ccc(C(F)(F)F)cc3)c(=O)c3c(C)noc23)c1C [Example 112, N-[6-fluoro-2-methyl-3-(3-methyl-4-oxo-5-{(1R)-1-[4-(trifluoromethyl)-phenyl]ethyl}-4,5-dihydro[1,2]oxazolo[4,5-d]pyridazin-7-yl)phenyl]acetamide]
29 | 6.18 | Cc1noc2c(-c3ccccc3O)nn(C(C)c3ccc(Cl)cc3)c(=O)c12 (centres unmarked) [Example 100, 5-[1-(4-chlorophenyl)ethyl]-7-(2-hydroxyphenyl)-3-methyl[1,2]oxazolo[4,5-d]pyridazin-4(5H)-one]
30 | 5.64 | COc1ccccc1-c1nn(Cc2cc(C(F)(F)F)ccc2F)c(=O)c2c(C)noc12 [Example 46, 5-[2-fluoro-5-(trifluoromethyl)benzyl]-7-(2-methoxyphenyl)-3-methyl[1,2]oxazolo[4,5-d]pyridazin-4(5H)-one]
31 | 6.31 | COc1ccc(F)cc1-c1nn(C(C)c2ccc(Cl)cc2)c(=O)c2c(C)noc12 (centres unmarked) [Example 63, 5-[1-(4-chlorophenyl)ethyl]-7-(5-fluoro-2-methoxyphenyl)-3-methyl[1,2]oxazolo[4,5-d]pyridazin-4(5H)-one]
32 | 5.71 | Cc1ccccc1-c1nn(Cc2ccc(Cl)cc2)c(=O)c2c(C)noc12 [Example 76, 5-(4-chlorobenzyl)-3-methyl-7-(2-methylphenyl)[1,2]oxazolo[4,5-d]pyridazin-4(5H)-one]
